Consider one molecule from patent US9421193B2, “Benzothiazole derivatives and a use thereof for the treatment of cancer” (Korea Institute of Radiological & Medical Sciences, priority 2014, dated 2016).

Structures are written as SMILES.

In assay [1] the test system is non-small cell lung cancer cell strain H460. Briefly: Trypan blue live cell count (cell viability). The class given is cell-based, human. The settings on record: FIGS. 3A and 3B, PB12 at 150 μM. Here is the method:
Whether the cancer cell growth inhibitory effects of the compounds PB01 and PB11 on the non-small cell lung cancer cell strains is associated with apoptosis was investigated. The cell growth inhibitory effects were evaluated by a trypan blue assay, and cell shapes were observed using an inverted microscope. The shapes of cell nuclei were observed via Hoeschst 33342 staining. Degrees of inducing apoptosis were quantized by flow cytometry (fluorescent activated cell sorting (FACS)).
After about 5×10^3 cells per well of each of the human non-small cell lung cancer cell strains A549 and H460 were portioned into a 96-well plate, about 10 uM to about 50 uM of the compounds PB01 or PB11 in 200 ul of culture solution were added into the wells, and incubated for about 8 to 72 hours. Cells were collected from the incubation product, and centrifuged at about 2,000 rpm for 5 minutes. After removing a supernatant, the remaining cells were mixed with 1 mL of phosphate-buffered saline (PBS) to obtain a cell suspension, which was then mixed with an equal amount of 0.5% trypan blue (Gibco BRL), followed by treatment for about 1 minute. The number of live cells was counted using a phase-contrast) microscope. The live cell counting was repeated three times, and an average live cell count and a standard error were calculated using a Microsoft Excel program. Cell viability graphs with respect to compound concentration and incubation time were obtained. The same experiment was performed with 50 μM of the compound PB01, PB11 50 μM of the compound PB11, or 150 μM of the compound PB12 150 μM, and cell viability graphs with respect to compound concentration and incubation time were obtained.

Assay [2] shares this test system. Briefly: Apoptosis ratio, Annexin V flow cytometry. The note with it: about 40 hours, 50 μM PB01, 50 μM PB11, 150 μM PB12, FIGS. 9A and 9B. The class given is cell-based, human. As to the method:
About 5×10^5 cells per well of each of the non-small cell lung cancer cell strains A549 and H460 were portioned into a 6-well plate and then incubated with the compounds PB01 or PB11 for about 40 hours in the same manner as described above. A cell layer was washed with PBS and then treated with trypsin-EDTA solution to isolate cells. The isolated cells were collected and stained with an Annexin V Flous Staining kit (available Roche Applied Science, Penzberg, Germany) in a dark condition for about 30 minutes. The stained cells were analyzed by flow cytometry using a FACScan™ (available from Becton Dicknson) to count the number of dead cells and then calculate an apoptosis ratio. The same experiment was performed with 50 μM of PB01, 50 μM of PB11, or 150 μM of PB12 in the same manner as described above. The graphs of cell viability with respect to compound concentration and incubation time obtained based on the experimental results are shown in FIGS. 9A and 9B.
A general note: Flow cytometry measures light scatter and fluorescence of single cells or particles in a stream.

Take `Cc1noc(C)c1CSc1nc2ccc(NC(=O)C3CCC(O)CC3)cc2s1` (centres unmarked) [PB12]: the “cancer cell apoptosis effect with respect to concentration and incubation time” value in assay [1] is “improved cancer cell apoptosis effects with increases in concentration and incubation time”. Also, the “apoptosis induction (Annexin V)” value in assay [2] is “kill the non-small cell lung cancer cells by inducing apoptosis”.
